Some test systems named below: EKVX NSCLC; HCC-2998 colon; HL-60(TB) leukemia; OVCAR-4 ovarian; OVCAR-8 ovarian; SF-539 CNS; TK-10 renal; UO-31 renal; RXF 393 renal; DU-145 prostate.
What all share (assay): NCI tumour cell line growth inhibition, 48 h

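96-well plates; 48 h exposure; 5 concentrations. Endpoints by linear interpolation between flanking doses. Not reached: highest tested concentration assigned. TGI marks complete inhibition of growth.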 A value given as a limit tells only on which side of the number the result lay.

Consider `COc1ccc(C2CC(=O)c3c(O)cc(O)cc3O2)cc1O` (stereo not given), for which the TGI in the experiment on EKVX NSCLC, in the experiment with HCC-2998 colon, with HL-60(TB) leukemia, in the experiment on OVCAR-4 ovarian, with OVCAR-8 ovarian and with SF-539 CNS was > 100 µM in each case. The TGI in the experiment on TK-10 renal and with UO-31 renal was > 100 µM in each case.
Turning to `O=C1[C@@H]2C(c3ccccc3Br)=NO[C@@H]2C(=O)N1c1ccc(Cc2ccc(N3C(=O)[C@H]4C(c5ccccc5Br)=NO[C@H]4C3=O)cc2)cc1`, the TGI with EKVX NSCLC, with HCC-2998 colon, with HL-60(TB) leukemia, in the experiment with OVCAR-4 ovarian, in the experiment on OVCAR-8 ovarian and in the experiment on RXF 393 renal was > 100 µM throughout. The TGI with SF-539 CNS, in the experiment on TK-10 renal and in the experiment on UO-31 renal was > 100 µM throughout.
In the case of `CN1N=CSC12C(=O)N(c1ccc(Cl)cc1)C(=O)N2c1ccc(Cl)cc1` (stereo not given), the TGI in the experiment with EKVX NSCLC was > 100 µM; with HCC-2998 colon, 37.7 µM; in the experiment on HL-60(TB) leukemia, 5.09 µM; in the experiment on OVCAR-4 ovarian it was > 100 µM; with OVCAR-8 ovarian it was > 100 µM; in the experiment on RXF 393 renal, 36.1 µM. Moreover, the TGI in the experiment with SF-539 CNS is > 100 µM; with TK-10 renal, 81.1 µM; in the experiment with UO-31 renal, 8.08 µM.
Take `CC(C)(C)NNC(=O)/C(=C/c1ccc([N+](=O)[O-])cc1)NC(=O)c1ccccc1`: the TGI with EKVX NSCLC, in the experiment with HCC-2998 colon, with HL-60(TB) leukemia, in the experiment with OVCAR-4 ovarian, in the experiment with OVCAR-8 ovarian and with RXF 393 renal was > 100 µM each time. Further, the TGI in the experiment on SF-539 CNS, in the experiment on TK-10 renal and with UO-31 renal was > 100 µM each time.
As for `N#Cc1ccccc1NC(=O)/C(=N\N)C(C(=O)c1ccncc1)C1OC(=O)c2ccccc21` (stereo not given), the TGI in the experiment with EKVX NSCLC, with HCC-2998 colon, with HL-60(TB) leukemia, in the experiment on OVCAR-4 ovarian, in the experiment on OVCAR-8 ovarian and in the experiment with SF-539 CNS was > 100 µM in each case. Moreover, the TGI with TK-10 renal and with UO-31 renal was > 100 µM in each case.
With `CC(C)(C)OC1=C(OC(C)(C)C)C(O)(c2ccccc2)C1=O` (stereo not given), the TGI with EKVX NSCLC, in the experiment on HCC-2998 colon, with HL-60(TB) leukemia, with OVCAR-4 ovarian, with OVCAR-8 ovarian and with RXF 393 renal was > 100 µM each time. For the same compound, the TGI in the experiment with SF-539 CNS, with TK-10 renal and in the experiment with UO-31 renal was > 100 µM in each case.
For the compound `CC(NS(=O)(=O)c1ccc([N+](=O)[O-])cc1)C(=O)O` (stereo not given), the TGI with EKVX NSCLC, with HCC-2998 colon, in the experiment with HL-60(TB) leukemia, with OVCAR-4 ovarian, with OVCAR-8 ovarian and with RXF 393 renal was > 100 µM in each case. The TGI in the experiment with SF-539 CNS, with TK-10 renal and with UO-31 renal was > 100 µM each time.
`O=C(Nc1ccccc1-c1n[nH]c(=S)[nH]c1=O)C(F)(F)F`: the TGI in the experiment with EKVX NSCLC, with HCC-2998 colon, with OVCAR-4 ovarian, with OVCAR-8 ovarian, in the experiment with RXF 393 renal and in the experiment on SF-539 CNS was > 100 µM throughout. Further, the TGI with TK-10 renal and with UO-31 renal was > 100 µM each time.
`COC(=O)C1=C(c2ccc(OC)c(OC)c2)OC(c2ccc(OC)c(OC)c2)C1` (stereo not given): the TGI in the experiment with EKVX NSCLC was > 100 µM; with HCC-2998 colon, > 100 µM; in the experiment on HL-60(TB) leukemia, 44.6 µM; with OVCAR-4 ovarian, > 100 µM; in the experiment with OVCAR-8 ovarian, > 100 µM; with RXF 393 renal it was 69.9 µM. For the same compound, the TGI in the experiment on SF-539 CNS, in the experiment on TK-10 renal and in the experiment on UO-31 renal was > 100 µM throughout.
`CC(C)/C=C1\CCC(CN2CCCC2)C1=O` (stereo not given): the TGI in the experiment with EKVX NSCLC was determined as 40 µM; in the experiment with HCC-2998 colon, 34.2 µM; in the experiment on HL-60(TB) leukemia, 14.4 µM; in the experiment on OVCAR-4 ovarian, 32.5 µM; with OVCAR-8 ovarian it was 16.5 µM; in the experiment on RXF 393 renal it was 29.7 µM. Also, the figures for the TGI in the experiment on SF-539 CNS, in the experiment on TK-10 renal and in the experiment with UO-31 renal were 35.6 µM, 24.7 µM and 32.5 µM, respectively.
As to `CN(C)c1ccc2c(=O)c3ccccc3oc2n1`, the TGI with EKVX NSCLC, with HCC-2998 colon, in the experiment with HL-60(TB) leukemia, in the experiment with OVCAR-4 ovarian, in the experiment on OVCAR-8 ovarian and with RXF 393 renal was > 100 µM throughout. The TGI in the experiment on TK-10 renal and in the experiment with UO-31 renal was > 100 µM in each case.
For `Cc1ccc(NC(=O)c2cc3cc(N=Nc4ccc(Br)cc4)ccc3oc2=O)cc1`, the TGI in the experiment on HCC-2998 colon, in the experiment on HL-60(TB) leukemia, with OVCAR-4 ovarian, with RXF 393 renal and in the experiment with TK-10 renal was > 100 µM each time.
Take `O=C(Nc1ccc(Cl)cc1Cl)C1C(=O)N(c2ccc(Cl)cc2Cl)C(=O)/C1=N\Nc1ccc([N+](=O)[O-])cc1[N+](=O)[O-]` (stereo not given): the TGI in the experiment with EKVX NSCLC, in the experiment on HCC-2998 colon, in the experiment with HL-60(TB) leukemia, in the experiment with OVCAR-4 ovarian, in the experiment with OVCAR-8 ovarian and with SF-539 CNS was > 100 µM throughout. Further, the TGI in the experiment with TK-10 renal and with UO-31 renal was > 100 µM in each case.
As to `Clc1ncnc(Cl)c1Cl`, the TGI with DU-145 prostate, with HCC-2998 colon, in the experiment with OVCAR-4 ovarian, in the experiment with OVCAR-8 ovarian, with RXF 393 renal and in the experiment on SF-539 CNS was > 100 µM throughout. Besides, the TGI in the experiment with TK-10 renal and with UO-31 renal was > 100 µM each time.
As to `CC1CC[C@]2(C(=O)O)CCC3(COC(=O)/C=C\c4ccc(O)cc4)C(=CCC4[C@@]5(C)CC[C@H](O)C(C)(C)C5CC[C@]43C)[C@@H]2[C@H]1C` (stereo not given in full), the TGI in the experiment on EKVX NSCLC is 32.8 µM; with HCC-2998 colon it was 33 µM; in the experiment on HL-60(TB) leukemia, 72.8 µM; in the experiment with OVCAR-4 ovarian, > 100 µM; in the experiment on OVCAR-8 ovarian, 46.3 µM; with RXF 393 renal, 33.9 µM. For the same compound, the results for the TGI in the experiment with SF-539 CNS, in the experiment on TK-10 renal and in the experiment on UO-31 renal were 31.3 µM, 44.7 µM and 32.1 µM, respectively.

(Values after PubChem BioAssay (NCI).)
